From ChEMBL document CHEMBL1250444, “Nitric oxide activates TRP channels by cysteine S-nitrosylation” (Nat Chem Biol, 2006)
Residue numbers refer to the chain shown, from its start. Activity calls are given as the source filed them. The rule behind the calls is not given here.

Columns and labels:
[1] = molecular target: Transient receptor potential cation channel subfamily V member 1 (Rattus norvegicus) (UniProt O35433); assay: Activation of rat TRPV1 expressed in HEK cells assessed as increase in Ca2+ level from extracellular space at 10 uM; assay type: cell-based; details: HEK293
[2] = molecular target: T1, Short transient receptor potential channel 5 (Homo sapiens) (UniProt Q9UL62); assay: Activation of TRPC5 expressed in BAEC expressing dominant negative mutant of TRPC5 assessed as increase in Ca2+ level from extracellular space at 100 uM
T1 sequence (whole entry): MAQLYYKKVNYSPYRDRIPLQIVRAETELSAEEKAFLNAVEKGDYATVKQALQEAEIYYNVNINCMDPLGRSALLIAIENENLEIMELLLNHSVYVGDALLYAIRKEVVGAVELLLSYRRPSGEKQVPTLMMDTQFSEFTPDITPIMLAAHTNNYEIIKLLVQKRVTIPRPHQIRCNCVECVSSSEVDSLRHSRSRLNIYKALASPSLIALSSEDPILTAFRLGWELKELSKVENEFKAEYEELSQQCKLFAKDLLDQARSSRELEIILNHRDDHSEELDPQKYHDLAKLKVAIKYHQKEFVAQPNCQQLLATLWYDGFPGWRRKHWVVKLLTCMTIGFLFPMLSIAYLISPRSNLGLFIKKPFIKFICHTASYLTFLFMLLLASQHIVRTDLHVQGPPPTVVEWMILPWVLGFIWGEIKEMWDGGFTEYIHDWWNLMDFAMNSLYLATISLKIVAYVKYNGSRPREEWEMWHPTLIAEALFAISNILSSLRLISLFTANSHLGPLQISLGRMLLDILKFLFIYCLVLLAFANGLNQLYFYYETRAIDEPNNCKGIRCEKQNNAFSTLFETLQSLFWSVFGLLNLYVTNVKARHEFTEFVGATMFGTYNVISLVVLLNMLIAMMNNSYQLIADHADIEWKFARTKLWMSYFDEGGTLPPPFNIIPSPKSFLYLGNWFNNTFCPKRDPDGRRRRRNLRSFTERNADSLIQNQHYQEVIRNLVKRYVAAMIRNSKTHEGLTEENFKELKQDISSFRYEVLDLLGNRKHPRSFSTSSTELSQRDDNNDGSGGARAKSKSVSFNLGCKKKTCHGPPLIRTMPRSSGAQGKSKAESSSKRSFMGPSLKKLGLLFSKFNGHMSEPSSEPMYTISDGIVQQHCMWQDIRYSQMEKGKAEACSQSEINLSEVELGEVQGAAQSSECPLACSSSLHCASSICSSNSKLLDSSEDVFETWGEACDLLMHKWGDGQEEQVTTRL

[3] = molecular target: Transient receptor potential cation channel subfamily V member 4 (Homo sapiens) (UniProt Q9HBA0); assay: Activation of TRPV4 in HEK cells assessed as increase in Ca2+ level from extracellular space at 10 uM; assay type: cell-based; details: HEK293
[4] = molecular target: T1, Short transient receptor potential channel 5 (Homo sapiens); assay: Induction of TRPC5 S-nitrosylation in chicken DT40 cells assessed as increase in Ca2+ level from extracellular space at 30 uM in presence of PLC-beta inhibitor U73122; assay type: cell-based
[5] = molecular target: T1, Short transient receptor potential channel 5 (Homo sapiens); assay: Activation of TRPC5 expressed in BAEC expressing dominant negative mutant of TRPC5 assessed as increase in Ca2+ level from extracellular space at 300 uM
HEK293 = assay: Activation of rat TRPV1 Cys616 mutant expressed in HEK cells assessed as increase in Ca2+ level from extracellular space at 0.1 to 1 mM; assay type: cell-based
[6] = test system: T2, Short transient receptor potential channel 5 (Homo sapiens), Q9UL62 [C558S]; assay: Decrease in TRPC5 C558S mutant S-nitrosylation in HEK cells assessed as inhibition of incorporation of DTNB-2Bio at 300 uM relative to control; assay type: cell-based; details: HEK293
T2 sequence (whole entry): T1 sequence (whole entry) with C558S

[7] = molecular target: T1, Short transient receptor potential channel 5 (Homo sapiens); assay: Induction of S-nitrosylation of TRPC5 in HEK cells assessed as increase in Ca2+ level from extracellular space at 1 mM in presence of dithiothreitol; assay type: cell-based; details: HEK293

Sequence of Transient receptor potential cation channel subfamily V member 1 (Rattus norvegicus) (O35433 whole entry): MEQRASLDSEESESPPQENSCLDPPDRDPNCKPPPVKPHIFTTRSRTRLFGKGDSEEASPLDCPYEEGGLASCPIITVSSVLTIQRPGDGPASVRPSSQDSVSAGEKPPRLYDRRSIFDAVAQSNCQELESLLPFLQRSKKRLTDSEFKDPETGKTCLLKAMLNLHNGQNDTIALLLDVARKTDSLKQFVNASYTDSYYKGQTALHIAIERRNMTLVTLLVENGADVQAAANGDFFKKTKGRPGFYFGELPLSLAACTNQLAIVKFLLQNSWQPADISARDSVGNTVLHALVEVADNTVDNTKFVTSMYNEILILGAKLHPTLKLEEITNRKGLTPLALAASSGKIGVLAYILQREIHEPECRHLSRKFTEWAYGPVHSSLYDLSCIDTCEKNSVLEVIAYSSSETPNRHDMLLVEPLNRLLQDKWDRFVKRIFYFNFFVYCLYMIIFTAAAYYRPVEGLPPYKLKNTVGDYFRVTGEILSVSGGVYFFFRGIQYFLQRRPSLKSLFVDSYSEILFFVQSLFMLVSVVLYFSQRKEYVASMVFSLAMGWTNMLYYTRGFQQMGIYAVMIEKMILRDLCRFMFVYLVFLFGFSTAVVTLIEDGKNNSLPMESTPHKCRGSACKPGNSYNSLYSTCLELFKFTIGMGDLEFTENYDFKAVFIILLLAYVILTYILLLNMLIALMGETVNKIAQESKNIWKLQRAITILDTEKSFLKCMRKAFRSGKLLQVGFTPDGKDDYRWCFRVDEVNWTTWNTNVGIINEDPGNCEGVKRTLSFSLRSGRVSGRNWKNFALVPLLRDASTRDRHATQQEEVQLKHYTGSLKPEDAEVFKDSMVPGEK
Sequence of Transient receptor potential cation channel subfamily V member 4 (Homo sapiens) (Q9HBA0 whole entry): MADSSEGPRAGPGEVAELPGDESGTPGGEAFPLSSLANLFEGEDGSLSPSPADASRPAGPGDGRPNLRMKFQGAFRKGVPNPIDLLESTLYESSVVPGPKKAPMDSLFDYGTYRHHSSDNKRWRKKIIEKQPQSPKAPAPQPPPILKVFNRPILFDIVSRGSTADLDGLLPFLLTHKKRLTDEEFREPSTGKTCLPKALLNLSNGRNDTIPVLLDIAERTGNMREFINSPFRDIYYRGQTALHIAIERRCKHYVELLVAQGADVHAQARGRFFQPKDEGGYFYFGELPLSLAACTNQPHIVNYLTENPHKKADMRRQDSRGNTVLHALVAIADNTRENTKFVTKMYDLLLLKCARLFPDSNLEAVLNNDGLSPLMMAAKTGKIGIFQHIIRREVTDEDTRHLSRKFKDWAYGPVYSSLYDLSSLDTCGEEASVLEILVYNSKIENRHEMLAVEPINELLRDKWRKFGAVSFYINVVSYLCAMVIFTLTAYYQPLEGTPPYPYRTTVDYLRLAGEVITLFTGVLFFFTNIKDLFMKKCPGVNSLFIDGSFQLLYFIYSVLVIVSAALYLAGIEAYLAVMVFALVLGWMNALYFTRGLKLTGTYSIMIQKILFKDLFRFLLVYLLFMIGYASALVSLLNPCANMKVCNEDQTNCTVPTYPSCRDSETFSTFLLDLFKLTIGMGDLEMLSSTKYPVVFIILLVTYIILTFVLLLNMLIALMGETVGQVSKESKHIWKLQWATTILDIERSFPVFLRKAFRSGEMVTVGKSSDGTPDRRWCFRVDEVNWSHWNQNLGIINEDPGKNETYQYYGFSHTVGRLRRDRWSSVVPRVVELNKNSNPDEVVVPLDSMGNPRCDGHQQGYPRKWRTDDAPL

Activity [1]	Activity [2]	Activity [3]	Activity [4]	Activity [5]	Activity [6]	Activity [7]	SMILES	Activity (HEK293)
Active	inactive	Active	Active	–	–	–	O=[N+]([O-])c1ccc(SSc2ccc([N+](=O)[O-])cn2)nc1	–
–	–	–	–	inactive	Active	inactive	CC(=O)N[C@@H](C(=O)O)C(C)(C)SN=O (racemic)	inactive
